Reference: the supplement of paper PMC10331698
± gives the standard deviation of the averaged measurements.

What was measured:
Experiment in all cases: level (log10 ratio to DMSO vehicle control); higher = higher biomarker level / cell amount than vehicle control
[1] = compound: C=CC(=O)OCC(F)(F)C(F)(F)C(F)(F)C(F)(F)COC(=O)C=C [1H,1H,6H,6H-Perfluorohexane-1,6-diol diacrylate]; settings: 6700 nM; in DMSO
Method: (§1)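 BioMAP Diversity Plus panel of 12 human primary cell co-culture systems (3C, 4H, LPS, SAg, BT, BF4T, BE3C, CASM3C, HDF3CGF, KF3CT, MyoF, Mphg). Compounds were added 1 h before stimulation and left for 24 h (MyoF 48 h; BT 72 h for soluble read-outs or 6 d for IgG). Biomarkers were read by ELISA, cytotoxicity by SRB, PBMC viability and proliferation by Alamar Blue. Each well value was divided by the mean of 8 DMSO control wells on the same plate and log10 transformed; duplicate blinded samples were tested at 4 concentrations.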

Methotrexate = compound: CN(Cc1cnc2nc(N)nc(N)c2n1)c1ccc(C(=O)N[C@@H](CCC(=O)O)C(=O)O)cc1 [Methotrexate]; settings: in DMSO
Method: as §1

[2] = compound: OCCC(F)(F)C(F)(F)C(F)(F)C(F)(F)C(F)(F)C(F)(F)C(F)(F)C(F)(F)F [8:2 Fluorotelomer alcohol]; settings: 6700 nM; in DMSO
Method: as §1

[3] = compound: FC(F)(F)COC(OCC(F)(F)F)OCC(F)(F)F [tris(Trifluoroethoxy)methane]; settings: in DMSO
Method: as §1

Perfluoropinacol = compound: OC(C(F)(F)F)(C(F)(F)F)C(O)(C(F)(F)F)C(F)(F)F [Perfluoropinacol]; settings: in DMSO
Method: as §1

[4] = compound: O=S(=O)(OCC(F)(F)F)C(F)(F)C(F)(F)C(F)(F)C(F)(F)F [2,2,2-Trifluoroethyl perfluorobutanesulfonate]; settings: in DMSO
Method: as §1

[5] = compound: O=C(CC(=O)C(F)(F)C(F)(F)C(F)(F)F)c1cccs1 [(Perfluorobutyryl)-2-thenoylmethane]; settings: in DMSO
Method: as §1

[6] = compound: FC(F)(I)C(F)(F)C(F)(F)C(F)(F)C(F)(F)C(F)(F)I [1,6-Diiodoperfluorohexane]; settings: 6700 nM; in DMSO
Method: as §1

Tetrafluorosuccinic acid = compound: O=C(O)C(F)(F)C(F)(F)C(=O)O [Tetrafluorosuccinic acid]; settings: in DMSO
Method: as §1

Row | Test System | level (log10) [1] | level (log10) (Methotrexate; 1500 nM) | level (log10) (Methotrexate; 4400 nM) | level (log10) (Methotrexate; 13000 nM) | level (log10) (Methotrexate; 40000 nM) | level (log10) [2] | level (log10) ([3]; 6700 nM) | level (log10) ([3]; 20000 nM) | level (log10) ([3]; 60000 nM) | level (log10) (Perfluoropinacol; 6700 nM) | level (log10) (Perfluoropinacol; 20000 nM) | level (log10) ([4]; 6700 nM) | level (log10) ([4]; 20000 nM) | level (log10) ([4]; 60000 nM) | level (log10) ([5]; 6700 nM) | level (log10) ([5]; 20000 nM) | level (log10) [6] | level (log10) (Tetrafluorosuccinic acid; 6700 nM) | level (log10) (Tetrafluorosuccinic acid; 20000 nM) | level (log10) (Tetrafluorosuccinic acid; 60000 nM)
1 | BF4T:IL-1alpha | -0.0155 ± 0.025 | 0.0145 ± 0.00071 | -0.037 ± 0.0042 | -0.012 ± 0.031 | 0.0045 ± 0.0021 | 0.005 | -0.0065 ± 0.013 | -0.0115 ± 0.013 | 0.003 ± 0.0099 | 0.0025 ± 0.012 | -0.025 ± 0.0057 | 0.0195 ± 0.023 | 0.0085 ± 0.026 | 0.0075 ± 0.015 | -0.041 | -0.0615 ± 0.011 | -0.017 | 0.023 ± 0.02 | 0.0145 ± 0.025 | 0.0335 ± 0.016
2 | BF4T:Keratin 8/18 | 0.0065 ± 0.029 | 0.005 ± 0.038 | -0.0385 ± 0.005 | -0.006 ± 0.054 | 0.0155 ± 0.028 | -0.008 ± 0.0028 | 0.0035 ± 0.032 | 0.0035 ± 0.021 | 0.01 ± 0.024 | -0.013 ± 0.0099 | -0.036 ± 0.0071 | 0.002 ± 0.016 | -0.0025 ± 0.016 | -0.0335 ± 0.0078 | -0.0735 ± 0.0035 | -0.127 ± 0.016 | 0.024 | 0.013 ± 0.018 | -0.0115 ± 0.037 | -0.0165 ± 0.03
3 | BF4T:MMP-1 | 0.0365 ± 0.018 | 0.0195 ± 0.015 | 0.0005 ± 0.016 | -0.012 ± 0.03 | 0.0015 ± 0.011 | 0.0035 ± 0.016 | 0.006 ± 0.02 | -0.007 ± 0.017 | 0.0015 ± 0.00071 | -0.0245 ± 0.00071 | -0.0165 ± 0.0035 | -0.0035 ± 0.015 | -0.0005 ± 0.015 | -0.0095 ± 0.0021 | -0.02 ± 0.011 | -0.0785 ± 0.0092 | -0.006 | 0.016 ± 0.02 | 0.008 ± 0.013 | 0.0295 ± 0.0035
4 | BF4T:MMP-3 | 0.085 ± 0.038 | 0.0045 ± 0.025 | -0.0285 ± 0.018 | -0.012 ± 0.031 | 0.015 ± 0.024 | -0.001 ± 0.0014 | 0.014 ± 0.044 | 0.004 ± 0.041 | 0.006 ± 0.042 | -0.013 ± 0.04 | -0.008 ± 0.0057 | -0.012 ± 0.0085 | -0.0055 ± 0.0035 | 0.02 ± 0.037 | -0.0475 ± 0.026 | -0.0985 ± 0.032 | -0.029 | 0.0285 ± 0.012 | -0.008 ± 0.028 | 0.012 ± 0.0057
5 | BF4T:MMP-9 | 0.0005 ± 0.00071 | 0.0265 ± 0.012 | -0.0075 ± 0.029 | 0.014 ± 0.0099 | 0.016 | -0.0325 ± 0.0078 | 0.015 ± 0.061 | 0.0075 ± 0.049 | 0.0205 ± 0.033 | -0.0245 ± 0.00071 | -0.0515 ± 0.0092 | -0.017 ± 0.0028 | -0.0145 ± 0.029 | -0.0225 ± 0.0064 | -0.0225 ± 0.0021 | -0.146 ± 0.039 | -0.059 | -0.003 ± 0.021 | -0.0075 ± 0.022 | -0.014 ± 0.0085
6 | BF4T:PAI-I | -0.015 ± 0.0014 | -0.002 ± 0.014 | -0.0075 ± 0.0078 | -0.0065 ± 0.0078 | -0.002 ± 0.0071 | -0.0135 ± 0.0035 | 0.0025 ± 0.023 | -0.012 ± 0.0042 | 0.007 | -0.0315 ± 0.0035 | -0.0845 ± 0.0064 | -0.0035 ± 0.0035 | -0.0075 ± 0.00071 | -0.0025 ± 0.0021 | -0.0085 ± 0.0092 | -0.125 ± 0.014 | -0.072 | -0.0075 ± 0.012 | -0.0025 ± 0.018 | 0.0035 ± 0.00071
7 | BF4T:SRB | -0.01 ± 0.0014 | -0.003 ± 0.017 | -0.0105 ± 0.0078 | -0.007 ± 0.0071 | 0.0045 ± 0.023 | -0.0095 ± 0.0035 | -0.0065 ± 0.0064 | -0.0085 ± 0.00071 | -0.003 ± 0.014 | -0.0135 ± 0.0021 | -0.031 ± 0.0014 | 0.005 ± 0.0042 | 0.002 ± 0.0028 | 0.0055 ± 0.0021 | -0.023 ± 0.0085 | -0.057 ± 0.0042 | -0.016 | -0.0035 ± 0.0021 | -0.005 ± 0.0028 | -0.0025 ± 0.00071
8 | BF4T:tPA | -0.0425 ± 0.0021 | 0.018 ± 0.0071 | -0.0155 ± 0.011 | 0.005 ± 0.014 | 0.0155 ± 0.018 | -0.103 ± 0.029 | 0.0025 ± 0.022 | -0.0105 ± 0.016 | -0.004 ± 0.0014 | -0.028 ± 0.011 | 0.032 ± 0.014 | 0.0025 ± 0.0021 | 0.011 ± 0.023 | 0.015 ± 0.0028 | -0.122 ± 0.02 | -0.068 ± 0.018 | -0.119 | -0.0145 ± 0.0078 | -0.006 ± 0.034 | -0.025 ± 0.013
9 | BF4T:uPA | -0.02 ± 0.035 | 0.013 ± 0.0085 | 0.0115 ± 0.0078 | 0.005 ± 0.03 | 0.009 ± 0.028 | -0.047 ± 0.0057 | 0.001 ± 0.0099 | -0.017 ± 0.011 | -0.0095 ± 0.00071 | -0.0305 ± 0.019 | -0.0365 ± 0.0064 | -0.0085 ± 0.018 | -0.008 ± 0.035 | -0.015 ± 0.023 | -0.0235 ± 0.00071 | -0.0535 ± 0.047 | -0.031 | -0.004 ± 0.0014 | -0.0185 ± 0.0064 | -0.0095 ± 0.0092
10 | BT:B cell Proliferation | -0.188 ± 0.0057 | -0.0915 ± 0.016 | -0.1 ± 0.0085 | -0.099 ± 0.0071 | -0.052 ± 0.037 | 0.0245 ± 0.0064 | -0.021 ± 0.021 | -0.005 ± 0.018 | -0.006 ± 0.073 | -0.0065 ± 0.0064 | -0.085 ± 0.034 | 0.019 ± 0.0042 | 0.0295 ± 0.019 | 0.024 ± 0.023 | -0.0105 ± 0.025 | -0.122 ± 0.036 | -0.019 | -0.0055 ± 0.035 | 0.0075 ± 0.019 | 0.0285 ± 0.00071
11 | BT:PBMC Cytotoxicity | -0.186 ± 0.0042 | -0.037 ± 0.0071 | -0.0455 ± 0.0021 | -0.0635 ± 0.0078 | -0.049 ± 0.035 | 0.001 ± 0.038 | 0.002 ± 0.033 | 0.005 ± 0.035 | 0.006 ± 0.0057 | 0.011 ± 0.017 | -0.0095 ± 0.023 | 0.0225 ± 0.022 | 0.0235 ± 0.056 | 0.053 ± 0.062 | 0.0005 ± 0.025 | -0.0515 ± 0.037 | 0.035 | 0.0305 ± 0.012 | 0.026 ± 0.0042 | 0.024 ± 0.014
12 | BT:Secreted IgG | -0.489 ± 0.25 | -1.302 ± 0.011 | -1.31 ± 0.079 | -1.33 | -1.26 | -0.0885 ± 0.088 | 0.019 ± 0.079 | -0.0135 ± 0.091 | 0.042 ± 0.014 | -0.322 ± 0.02 | -1.36 | -0.0615 ± 0.043 | -0.0585 ± 0.016 | -0.162 ± 0.058 | -0.009 ± 0.018 | -0.855 ± 0.016 | 0.019 | -0.0035 ± 0.033 | 0.0055 ± 0.011 | 0.0155 ± 0.0035
13 | BT:sIL-2 | -0.461 ± 0.18 | 0.0155 ± 0.016 | -0.0845 ± 0.11 | 0.0085 ± 0.035 | -0.075 ± 0.035 | 0.001 ± 0.052 | -0.0155 ± 0.016 | 0.0015 ± 0.021 | 0.029 ± 0.025 | 0.107 ± 0.059 | 0.0335 ± 0.071 | 0.015 ± 0.0042 | 0.116 ± 0.068 | 0.102 ± 0.014 | 0.0385 ± 0.067 | -0.001 ± 0.0014 | -0.059 | -0.0195 ± 0.035 | 0.03 ± 0.083 | 0.0825 ± 0.13
14 | BT:sIL-6 | -0.546 ± 0.044 | 0.0125 ± 0.013 | -0.034 ± 0.1 | -0.0095 ± 0.059 | -0.2 ± 0.033 | 0.0665 ± 0.013 | -0.006 ± 0.037 | 0.0005 ± 0.0092 | -0.0105 ± 0.11 | -0.073 ± 0.051 | -0.0655 ± 0.019 | 0.089 ± 0.0085 | 0.158 ± 0.02 | 0.231 ± 0.033 | -0.009 ± 0.024 | -0.265 ± 0.067 | -0.018 | -0.0225 ± 0.0064 | -0.018 ± 0.025 | -0.033 ± 0.011
